≈ marks a conversion by molar mass, not a printed value. Where a name gives a salt, the structure may show the parent alone. Read-outs that look alike come from different tables or passages of the source.
Key:
Test in all cases: microbe, parasite or virus in culture
Mtb-lineage2 = assay type: cell-based, Mycobacterium tuberculosis; settings: for direct inhibition of growth: Mtb-lineage2, in-vitro, 5, 10 and 50 μM, over 20 days; for IC50 / MIC: Mycobacterium tuberculosis
Mtb-lineage4 = assay type: cell-based, Mycobacterium tuberculosis; settings: for direct inhibition of growth: Mtb-lineage4, in-vitro, 5, 10 and 50 μM, over 20 days
M. bovis = assay type: cell-based, Mycobacterium bovis; settings: for MIC: Mycobacterium tuberculosis variant bovis
Maf-lineage5 = assay type: cell-based, Mycobacterium africanum; settings: for direct inhibition of growth: Maf-lineage5, in-vitro, 5, 10 and 50 μM, over 20 days
Maf-lineage6 = assay type: cell-based, Mycobacterium africanum; settings: for direct inhibition of growth: Maf-lineage6, in-vitro, 5, 10 and 50 μM, over 20 days; for MIC: Mycobacterium tuberculosis

Structure (SMILES): C#Cc1cccc(Nc2ncnc3cc(OCCOC)c(OCCOC)cc23)c1 [Erlotinib]
- direct inhibition of growth (Mtb-lineage2): directly inhibit growth
- IC50 (Mtb-lineage2; 360 h, Mtb-lineage2, Day 15): 16.3 µM
- MIC (Mtb-lineage2; 360 h, Mtb-lineage2, Day 15, read-out: MIC): 33 µM (≈ 13 µg/mL)
- IC50 (Mtb-lineage2; 384 h, Mtb-lineage2, Day 16): 10.1 µM
- MIC (Mtb-lineage2; 384 h, Mtb-lineage2, Day 16, read-out: MIC): ~1.07 µM (≈ 0.423 µg/mL)
- IC50 (Mtb-lineage2; 408 h, Mtb-lineage2, Day 17): 8.65 µM
- MIC (Mtb-lineage2; 408 h, Mtb-lineage2, Day 17, read-out: MIC): 41 µM (≈ 16.1 µg/mL)
- IC50 (Mtb-lineage2; 456 h, Mtb-lineage2, Day 19): 6.79 µM
- MIC (Mtb-lineage2; 456 h, Mtb-lineage2, Day 19, read-out: MIC): 49.4 µM (≈ 19.4 µg/mL)
- IC50 (Mtb-lineage2; 480 h, Mtb-lineage2, Day 20): 6.19 µM
- IC50 (Mtb-lineage2; […], Mtb-lineage2, Day 18): 7.61 µM
- MIC (Mtb-lineage2; […], Mtb-lineage2, Day 18, read-out: MIC): 43.6 µM (≈ 17.1 µg/mL)
- direct inhibition of growth (Mtb-lineage4): directly inhibit growth
- direct inhibition of growth (M. bovis): directly inhibit growth
- direct inhibition of growth (Maf-lineage5): directly inhibit growth
- direct inhibition of growth (Maf-lineage6): directly inhibit growth

Structure (SMILES): Cc1ccc(NC(=O)c2ccc(CN3CCN(C)CC3)cc2)cc1Nc1nccc(-c2cccnc2)n1 [Imatinib, Imatinib mesylate]
- susceptibility to direct inhibition (Mtb-lineage2; Example 4, Mtb-lineage2, concentrations up to 200 μM): more susceptible to direct inhibition
- direct inhibition of growth (Mtb-lineage2): directly restricted the growth
- MIC (Mtb-lineage2; 240 h, Mtb-lineage2 (a), Day 10, read-out: MIC): 56 µM
- MIC (Mtb-lineage2; 240 h, Mtb-lineage2 (b), Day 10, read-out: MIC): 60.4 µM
- MIC (Mtb-lineage2; 240 h, Mtb-lineage2, Day 10, read-out: MIC): 56 µM
- MIC (Mtb-lineage2; 288 h, Mtb-lineage2 (a), Day 12, read-out: MIC): 56.7 µM
- MIC (Mtb-lineage2; 288 h, Mtb-lineage2 (b), Day 12, read-out: MIC): 60.7 µM
- MIC (Mtb-lineage2; 288 h, Mtb-lineage2, Day 12, read-out: MIC): 56.7 µM
- MIC (Mtb-lineage2; 312 h, Mtb-lineage2 (a), Day 13, read-out: MIC): 57.1 µM
- MIC (Mtb-lineage2; 312 h, Mtb-lineage2 (b), Day 13, read-out: MIC): 60.5 µM
- MIC (Mtb-lineage2; 312 h, Mtb-lineage2, Day 13, read-out: MIC): 57.1 µM
- MIC (Mtb-lineage2; 336 h, Mtb-lineage2 (a), Day 14, read-out: MIC): 57.4 µM
- MIC (Mtb-lineage2; 336 h, Mtb-lineage2 (b), Day 14, read-out: MIC): 85.4 µM
- MIC (Mtb-lineage2; 336 h, Mtb-lineage2, Day 14, read-out: MIC): 57.4 µM
- MIC (Mtb-lineage2; 360 h, Mtb-lineage2 (a), Day 15, read-out: MIC): 57.8 µM
- MIC (Mtb-lineage2; 360 h, Mtb-lineage2 (b), Day 15, read-out: MIC): 86.7 µM
- MIC (Mtb-lineage2; […], Mtb-lineage2 (a), Day 11, read-out: MIC): 56.4 µM
- MIC (Mtb-lineage2; […], Mtb-lineage2 (b), Day 11, read-out: MIC): 61 µM
- MIC (Mtb-lineage2; […], Mtb-lineage2, Day 11, read-out: MIC): 56.4 µM
- susceptibility to direct inhibition (Mtb-lineage4; Example 4, Mtb-lineage4, concentrations up to 200 μM): more susceptible to direct inhibition
- MIC (Mtb-lineage4; Mtb-lineage4, Day 11): Unstable
- MIC (Mtb-lineage4; Mtb-lineage4, Day 12): Unstable
- MIC (Mtb-lineage4; Mtb-lineage4, Day 13): Unstable
- MIC (Mtb-lineage4; Mtb-lineage4, Day 14): Unstable
- direct inhibition of growth (Mtb-lineage4): not
- MIC (Mtb-lineage4; Mycobacterium tuberculosis, 240 h, Mtb-lineage4, Day 10, read-out: MIC): 98.8 µM
- direct inhibition of growth (M. bovis): directly restricted the growth
- susceptibility to direct inhibition (M. bovis): more susceptible to direct inhibition
- MIC (M. bovis; 240 h): 8.39 µM
- MIC (M. bovis; 288 h): 21.1 µM
- MIC (M. bovis; 312 h): 25.6 µM
- MIC (M. bovis; 336 h): 30.3 µM
- MIC (M. bovis; 360 h): 35.2 µM
- MIC (M. bovis; […]): 16.3 µM
- MIC (Maf-lineage5; 240 h, Maf-lineage5, Day 10): 58.1 µM
- MIC (Maf-lineage5; 288 h, Maf-lineage5, Day 12): 60.8 µM
- MIC (Maf-lineage5; 312 h, Maf-lineage5, Day 13): 62 µM
- MIC (Maf-lineage5; 336 h, Maf-lineage5, Day 14): 63.4 µM
- MIC (Maf-lineage5; 360 h, Maf-lineage5, Day 15): 65.2 µM
- susceptibility to direct inhibition (Maf-lineage5; Example 4, Maf-lineage5, concentrations up to 200 μM): more susceptible to direct inhibition
- MIC (Maf-lineage5; Maf-lineage5, Day 11): 59.5 µM
- direct inhibition of growth (Maf-lineage5): not
- response to drug (Maf-lineage6): didn't respond
- susceptibility to direct inhibition (Maf-lineage6; Example 4, Maf-lineage6 (c), concentrations up to 200 μM): more susceptible to direct inhibition
- direct inhibition of growth (Maf-lineage6): not
- MIC (Maf-lineage6; 240 h, Maf-lineage6 (a), Day 10): ~0.743 µM
- MIC (Maf-lineage6; 240 h, Maf-lineage6 (b), Day 10): ~9090 µM
- MIC (Maf-lineage6; 240 h, Maf-lineage6 (c), Day 10): 101 µM
- MIC (Maf-lineage6; 240 h, Maf-lineage6 (d), Day 10): ~46400 µM
- MIC (Maf-lineage6; 288 h, Maf-lineage6 (a), Day 12): ~0.594 µM
- MIC (Maf-lineage6; 288 h, Maf-lineage6 (b), Day 12): 1460 µM
- MIC (Maf-lineage6; 288 h, Maf-lineage6 (c), Day 12): 100 µM
- MIC (Maf-lineage6; 312 h, Maf-lineage6 (a), Day 13): ~0.562 µM
- MIC (Maf-lineage6; 312 h, Maf-lineage6 (b), Day 13): 1260 µM
- MIC (Maf-lineage6; 312 h, Maf-lineage6 (c), Day 13): 100 µM
- MIC (Maf-lineage6; 336 h, Maf-lineage6 (a), Day 14): ~0.541 µM
- MIC (Maf-lineage6; 336 h, Maf-lineage6 (b), Day 14): 1520 µM
- MIC (Maf-lineage6; 336 h, Maf-lineage6 (c), Day 14): 100 µM
- MIC (Maf-lineage6; 360 h, Maf-lineage6 (a), Day 15): ~0.515 µM
- MIC (Maf-lineage6; 360 h, Maf-lineage6 (b), Day 15): ~3590 µM
- MIC (Maf-lineage6; 360 h, Maf-lineage6 (c), Day 15): 100 µM
- MIC (Maf-lineage6; […], Maf-lineage6 (a), Day 11): ~0.721 µM
- MIC (Maf-lineage6; […], Maf-lineage6 (b), Day 11): ~2390 µM
- MIC (Maf-lineage6; […], Maf-lineage6 (c), Day 11): 101 µM

Structure (SMILES): COc1cc2ncnc(Nc3ccc(F)c(Cl)c3)c2cc1OCCCN1CCOCC1 [Gefitinib]
- MIC (Mtb-lineage2; 240 h): 54.3 µM (≈ 24.3 µg/mL)
- MIC (Mtb-lineage2; 288 h): 54.3 µM (≈ 24.3 µg/mL)
- MIC (Mtb-lineage2; 312 h): 52.2 µM (≈ 23.3 µg/mL)
- MIC (Mtb-lineage2; 336 h): 54.8 µM (≈ 24.5 µg/mL)
- MIC (Mtb-lineage2; […]): 52.7 µM (≈ 23.6 µg/mL)
